Data from patent US20040198663A1, “Method of treating cardiac ischemia by using erythropoietin” (priority 2003, published 2004).

Key:
Design in all cases: species or system rabbit
[1] = system: nitric oxide synthase; assay: Nitrite and nitrate release from isolated hearts; conditions: before 2.3±0.9
Procedure: Nitrite and nitrate release from hearts before (2.3±0.9 nmoles/min/g) and after (2.4±1.9 nmoles/min/g) 15 minutes treatment with erythropoietin (1.0 U/ml, n=8) were not different.

[2] = system: PKCε; assay: Western analysis of cytosolic and particulate fractions of erythropoietin-treated hearts; conditions: erythropoietin 1.0 U/ml
Procedure: (§1) Western analysis. Hearts from infant rabbits were isolated and aerobically perfused with bicarbonate buffer for 30 minutes at constant pressure, then perfused with erythropoietin for 5 or 15 minutes. The free wall of the left ventricle was excised and immediately freeze-clamped between stainless steel tongs pre-cooled with liquid nitrogen. Frozen myocardial tissue samples were powdered in a pre-cooled stainless steel mortar and pestle.
(§2) The powdered tissue was then processed to obtain cytosolic and particulate fractions for Western analysis, as described in Raflee et al., Circulation 106:239-45 (2002). Powdered tissue was homogenized in sample buffer (50 mM Tris pH 7.5, 5 mM EDTA, 10 mM EGTA, 10 mM benzamidine, 10 μg/ml pepstatin A, 50 μg/ml PMSE, 10 μg/ml aprotinin, 10 μg/ml leupeptin, and 0.3% β-mercaptoenthanol) on ice for 50 strokes. Nuclei and cellular debris was removed by centrifugation (1000 g at. 4° C. for 15 min). The supernatant was transferred to a new cold 1.5 mL microcentrifuge tube. The cytosolic and particulate portions of total cellular proteins were separated by a 30-minute centrifugation at 45000 g. Protein concentrations were determined by the method of Bradford. Equal amounts of protein were analyzed by SDS-PAGE and Western blotting by using either isoform-specific antibodies for phospho-PKC detection or specific antibodies against phosphorylated and non-phosphorylated p38 MAPK, JNK, and p42/44 MAPK. The blots were developed by ECL. Densitometry was performed on each sample and analyzed with the use of NIH image software. Rafiee et al., Circulation 106:239-45 (2002).
(§3) Cytosolic and particulate fractions from erythropoietin-treated and untreated hearts were prepared. Protein content for PKCε, p38 MAP kinase, p42/44 MAP kinase and JUN kinase was determined by SDS-PAGE and Western blot analysis using monoclonal antibodies specific for PKCε, phosphorylated p38 MAP kinase (Thr180/Tyr182), p42/44 MAP kinase (Thr202/Tyr204), and JUN kinase (Thr183/Tyr185). Non-phosphorylated antibodies were used to ensure equal loading of proteins.

[3] = system: JUN kinase; assay: as above
Procedure: as §1, §2, §3

[4] = system: p42/44 MAP kinase; assay: as above
Procedure: as §1, §2, §3

[5] = system: p38 MAP kinase; assay: as above
Procedure: as §1, §2, §3

[6] = erythropoietin 1.0 U/ml for 5 minutes
[7] = erythropoietin 1.0 U/ml for 15 minutes

Substance: erythropoietin: Recombinant human erythropoietin, a glycoprotein hormone, obtained from Cell Science, Inc.
- nitrite and nitrate release from hearts after treatment ([1]; after 15-minute erythropoietin 1.0 U/ml, not different (discussion)): 2.4 ± 0.9 nmol/min/g
- nitrite and nitrate release from hearts after treatment ([1]; after 15 minutes erythropoietin 1.0 U/ml, not different): 2.4 ± 1.9 nmol/min/g
- treatment time at which phosphorylation of PKCε was maximal [2]: 15 min
- PKCε activation and translocation ([2]; 5 or 15 minutes): activated and translocated from the cytosolic to the particulate fraction
- treatment time at which phosphorylation of JUN kinase was maximized ([3]; erythropoietin 1.0 U/ml): 5 min
- phosphorylation of JUN kinase [3, 6]: phosphorylation of JUN kinase in the cytosolic fraction but not in the particulate fraction
- phosphorylation of JUN kinase in the cytosolic fraction [3, 7]: declined
- treatment time at which phosphorylation of p42/44 MAP kinase was maximal ([4]; erythropoietin 1.0 U/ml): 15 min
- phosphorylation of p42/44 MAP kinase [4, 6]: remarkable phosphorylation of p42/44 MAP kinase in the cytosolic fraction with minor phosphorylation in the particulate fraction
- phosphorylation of p42/44 MAP kinase [4, 7]: enhanced phosphorylation of p42/44 MAP kinase in the cytosolic fraction and in the particulate fraction
- treatment time at which phosphorylation of p38 MAP kinase was maximized ([5]; erythropoietin 1.0 U/ml): 5 min
- phosphorylation of p38 MAP kinase [5, 6]: phosphorylation of p38 MAP kinase in the cytosolic fraction but not in the particulate fraction
- extent of phosphorylation of p38 MAP kinase [5, 7]: declined
